Test [1] has as its target T1, CRAC channels (Homo sapiens (Human), UniProt Q96D31). Nature of the test: In-vitro CRAC channel inhibition assay in Jurkat cells (thapsigargin-induced calcium influx). It counts as cell-based. The method, boiled down:
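Jurkat cells given test compounds in Ca2+/Mg2+-free Hanks buffer for 15 min, then thapsigargin (1 μM final) for 15 min to deplete ER stores. IC50 from percent inhibition of thapsigargin-induced Ca2+ influx.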

For test [2], the system named is IL-5. Nature of the test: Inhibition of cytokine release in Human Whole Blood: IL-5. The test is classed as cell-based. The note with it: Phytohemagglutinin, 48 h, ELISA, read-out: IC 50 Human Whole Blood IL-5. Here is the method: (§1) 2. In Vitro Inhibition of Cytokine Release in Jurkat Cells, Human Whole Blood and Peripheral Blood Mononuclear Cells (PBMC).
(§2) Inhibition of cytokine IL-2, IL-4, IL-5 and TNF α was determined as described below. • a. Inhibition of IL-2 in Jurkat cells: Cells were incubated with desired concentrations of the inhibitor for 15 min. Cytokine release was induced by the addition of Concanavalin A (25 μg/ml)+Phorbol Myristate Acetate (50 ng/ml) for IL-2 & TNFα or with Phytohemagglutinin ([…]) for IL-4 & IL-5 and incubated at 37° C. in an atmosphere containing […]. Supernatant was collected after 20 h (IL-2 & TNFα) or 48 h (IL-4 & IL-5) for estimation of cytokines by ELISA. Data were analysed using GraphPad Prism. IC50 values for each compound were determined based on the percent inhibition due to the test compound compared to the control. • b. Inhibition of cytokine release in Human Whole Blood (HWB): Freshly collected HWB was diluted with RPMI medium (1:4.5) and added to a 96-well plate. Wells were incubated with desired concentrations of the inhibitor for 15 min. Cytokine release was induced by the addition of Concanavalin A (25 μg/ml)+Phorbol Myristate Acetate (50 ng/ml) for IL-2 & TNFα or with Phytohemagglutinin (5 μg/ml) for IL-4 & IL-5 and incubated at 37° C. in an atmosphere containing […]. Supernatant was collected after 20 h (IL-2 & TNFα) or 48 h (IL-4 & IL-5) for estimation of cytokines by ELISA. Data were analysed using GraphPad Prism. IC50 values for each compound were determined based on the percent inhibition due to the test compound compared to the control. • c. Inhibition of cytokine release in PBMC: PBMC from freshly collected HWB were isolated by density gradient using Histopaque and seeded in a 96-well plate. Cells were incubated with desired concentrations of the inhibitor for 15 min. Cytokine release was induced by the addition of Concanavalin A (25 μg/ml)+Phorbol Myristate Acetate (50 ng/ml) for IL-2 & TNFα or with Phytohemagglutinin (5 μg/ml) for IL-4 & IL-5 and incubated at 37° C. in an atmosphere containing […]. Supernatant was collected after 20 h (IL-2 & TNFα) or 48 h (IL-4 & IL-5) for estimation of cytokines by ELISA. Data were analysed using GraphPad Prism. IC50 values for each compound were determined based on the percent inhibition due to the test compound compared to the control.

For test [3], the system named is IL-2. Nature of the test: Inhibition of cytokine release in Human Whole Blood: IL-2. It counts as cell-based. The following applies: Con A + PMA, 20 h, ELISA, read-out: IC 50 Human Whole Blood IL-2. Here is the method:
as §1, §2

Test [4] relates to IL-5. Nature of the test: Inhibition of cytokine release in PBMC: IL-5. It counts as cell-based. The note with it: Homo sapiens, Phytohemagglutinin, 48 h, ELISA, read-out: IC 50 PBMC IL-5. Here is the method:
as §1, §2

The test system of test [5] is IL-2. Nature of the test: Inhibition of cytokine release in PBMC: IL-2. The note with it: Homo sapiens, Con A + PMA, 20 h, ELISA, read-out: IC 50 PBMC IL-2. The test is classed as cell-based. As to the method: as §1, §2
In test [6] the test system is IL-4. Nature of the test: Inhibition of cytokine release in PBMC: IL-4. It counts as cell-based. The note with it: Homo sapiens, Phytohemagglutinin, 48 h, ELISA, read-out: IC 50 PBMC IL-4. Here is the method: as §1, §2
For test [7], the target named is T1, CRAC channels. Nature of the test: In-vitro CRAC channel inhibition assay in NCI-H460 cancer cell line (Ca assay). The test is classed as cell-based. The note with it: thapsigargin-induced calcium influx, NCI-H460 cells. Here is the method:
1B. In-Vitro CRAC Channel Inhibition Assay in NCI-H460 Cancer Cell Line
Inhibition of CRAC channels was determined following thapsigargin (Sigma, Cat #T9033) induced endoplasmic calcium release in NCI-H460 cells (National Centre For Cell Science (NCCS), Pune).
Cells (30,000 per well) were plated overnight in complete RPMI medium. Medium was substituted with Ca^2+ and Mg^2+ free Hanks buffer and Fluo-8 NW dye (ABD Bioquest, Inc., Sunnyvale, Calif.) loading solution in 96-well black plate. Plate was incubated at 37° C./5% CO2 for 30 min followed by further 15 min incubation at room temperature. Test compounds (DMSO stocks diluted in Ca^2+ and Mg^2+ free Hanks buffer) at desired concentrations were added to the wells and incubated for 15 min. Thapsigargin (1 μM final concentration) was added to the wells and incubated for 15 min to inhibit the Sarco-endoplasmic reticulum Ca^2+ ATPase pump thereby depleting endoplasmic calcium and raising cytosolic calcium concentrations. Store-operated calcium entry was initiated by adding extracellular Ca^2+ to a final concentration of 2.5 mM. Fluorescence was monitored over 30 min on a plate reader (BMG Labtech., Germany) with excitation at 485 nm and an emission wavelength at 520 nm. Data were analyzed using GraphPad Prism. IC50 for each compound was determined based on the percent inhibition of Thapsigargin-induced calcium influx into cells.

For test [8], the system named is TNFα. Nature of the test: Inhibition of cytokine release in PBMC: TNFα. The test is classed as cell-based. The following applies: Homo sapiens, Con A + PMA, 20 h, ELISA, read-out: IC 50 PBMC TNFα. As to the method:
as §1, §2

The subject of test [9] is TNFα. Nature of the test: Inhibition of cytokine release in Human Whole Blood: TNFα. It counts as cell-based. The following applies: Con A + PMA, 20 h, ELISA, read-out: IC 50 Human Whole Blood TNFα. As to the method: as §1, §2
Test [10] relates to NCI-H460 cancer cell line. Nature of the test: In-vitro cell proliferation assay in NCI-H460 cancer cell line (MTT). It counts as cell-based. The following applies: Homo sapiens, 10 μM, 48 h. As to the method: 1C. In-Vitro Cell Proliferation Assay in NCI-H460 Cancer Cell Line (Anticancer Activity)
Growth inhibition assays were carried out using 10% FBS supplemented media. Cells were seeded at a concentration of 5000 cells/well in a 96-well plate. Test compound at a concentration range from 0.01 to 10000 nM were added after 24 h. Growth was assessed using the 3-[4,5-dimethylthiazol-2-yl]-2,5-diphenyltetrazolium bromide (MTT) dye reduction test at 0 h (prior to the addition of the test compound) and 48 h after the addition of test compound. Absorbance was read on a Fluostar Optima (BMG Labtech, Germany) at a wave length of 450 nm. Data were analysed using GraphPad Prism. IC-50 for each compound was determined based on the % inhibition due to the test compound compared to the control.
For methods of cell proliferation assay, see, for example, Mosmann. T., Journal of Immunological Methods, 65(1-2), 55-63, (1983).

In test [11] the test system is IL-2. Nature of the test: Inhibition of IL-2 in Jurkat cells. The test is classed as cell-based. The following applies: Homo sapiens, Con A + PMA, 20 h, ELISA, read-out: IC 50 Jurkat IL-2. As to the method: as §1, §2
The subject of test [12] is IL-4. Nature of the test: Inhibition of cytokine release in Human Whole Blood: IL-4. The test is classed as cell-based. The following applies: Phytohemagglutinin, 48 h, ELISA, read-out: IC 50 Human Whole Blood IL-4. As to the method: as §1, §2
For test [13], the system named is CRAC channels over the voltage operated channels (VOC). The note with it: Yasurio Yonetoky et al.; cited from earlier work.

These results are taken from patent publication US10668051B2, “Modulators of calcium release-activated calcium channel” (Rhizen Pharmaceuticals SA, priority 2009, dated 2020).

T1 sequence (Q96D31 whole entry): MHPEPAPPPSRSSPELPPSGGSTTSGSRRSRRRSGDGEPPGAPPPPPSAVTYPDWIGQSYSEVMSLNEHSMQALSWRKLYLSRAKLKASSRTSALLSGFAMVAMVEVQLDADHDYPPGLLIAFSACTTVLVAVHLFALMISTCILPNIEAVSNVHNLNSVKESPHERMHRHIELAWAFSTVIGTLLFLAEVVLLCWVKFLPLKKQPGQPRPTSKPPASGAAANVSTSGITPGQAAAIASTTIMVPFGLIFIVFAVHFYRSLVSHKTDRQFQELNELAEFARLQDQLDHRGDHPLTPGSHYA

As to `Cc1nnsc1C(=O)Nc1ccc(-n2nc(C3CC3)cc2C2CC2)c(F)c1` [Example 28, N-[4-(3,5-dicyclopropyl-1H-pyrazol-1-yl)-3-fluorophenyl]-4-methyl-1,2,3-thiadiazole-5-carboxamide], on CRAC channels [1], the inhibition at 1 µM was 100%. Moreover, the IC50 in the test with IL-5 [2] was determined as 46.3 nM; with IL-2 [3], 600 nM; with IL-5 [4], 198 nM; in the test on IL-2 [5], 54.3 nM.
On to `Cc1ncsc1C(=O)Nc1ccc(-n2nc(C(F)(F)F)cc2C2CC2)cc1` [Example 53, N-{4-[5-cyclopropyl-3-(trifluoromethyl)-1H-pyrazol-1-yl]phenyl}-4-methylthiazole-5-carboxamide], for which the inhibition at 1 µM worked out at 99.4% on CRAC channels [1] and 84.6% on CRAC channels [7]. The IC50 was determined as 61.8 nM with IL-5 [2]; 79.9 nM in the test with IL-4 [6]; 274 nM in the test with IL-2 [3]; 146 nM in the test with IL-5 [4]; 121 nM in the test on TNFα [8]; 21.3 nM with IL-2 [5]. The IC50 with TNFα [9] is 125 nM. The compound also yielded an inhibition at 10 µM in [10] of 22%.
Turning to `Cc1ncsc1C(=O)Nc1ccc(-n2nc(C(F)(F)F)cc2C2CC2)c(F)c1` [Example 83, N-{4-[5-cyclopropyl-3-(trifluoromethyl)-1H-pyrazol-1-yl]-3-fluorophenyl}-4-methylthiazole-5-carboxamide], the inhibition at 1 µM on CRAC channels [1] is 100%. Further, the IC50 came out at 352 nM in the test with IL-4 [6]; 132 nM with IL-2 [3]; 86.8 nM in the test with TNFα [8]; 15.7 nM in the test on IL-2 [5]; 546 nM in the test on TNFα [9]; 57.9 nM with IL-2 [11].
On to `O=C(Nc1ccc(-n2nc(C(F)(F)F)cc2C2CC2)c(F)c1)c1c(F)cccc1F` [Example 88, N-{4-[5-cyclopropyl-3-(trifluoromethyl)-1H-pyrazol-1-yl]-3-fluorophenyl}-2,6-difluorobenzamide], for which the inhibition at 1 µM at CRAC channels [1] came to 100%. The IC50 in the test with IL-2 [3] came to 229 nM; in the test on IL-4 [12], 260 nM.
Regarding `Cc1ncncc1C(=O)Nc1ccc(-n2nc(C(F)(F)F)cc2C2CC2)c(F)c1` [Example 93, N-{4-[5-cyclopropyl-3-(trifluoromethyl)-1H-pyrazol-1-yl]-3-fluorophenyl}-4-methylpyrimidine-5-carboxamide], the inhibition at 1 µM at CRAC channels [1] was determined as 90%. Moreover, the IC50 was determined as 173 nM in the test with IL-5 [2]; 264 nM in the test with IL-4 [6]; 65.1 nM with IL-2 [3]; 140 nM in the test with IL-5 [4]; 142 nM with IL-4 [12]; 66.8 nM with TNFα [8]. The IC50 with IL-2 [5] is 52.9 nM; in the test on TNFα [9] it was 148 nM; in the test on IL-2 [11], 140 nM.
On to `O=C(Nc1c(F)cccc1F)c1ccc(-n2nc(C(F)(F)F)cc2C2CC2)c(F)c1` [Example 100, 4-[5-cyclopropyl-3-(trifluoromethyl)-1H-pyrazol-1-yl]-N-(2,6-difluorophenyl)-3-fluorobenzamide], for which the inhibition at 1 µM on CRAC channels [1] was found to be 86.7%. The IC50 came out at 56.4 nM in the test on IL-5 [2], 77.8 nM in the test on IL-2 [3], 256 nM in the test on IL-4 [12] and 31.4 nM in the test on IL-2 [5].
Turning to `O=C(Nc1ccc(-n2nc(C(F)(F)F)cc2C2CC2)nc1)c1c(F)cccc1F` [Example 108, N-{6-[5-cyclopropyl-3-(trifluoromethyl)-1H-pyrazol-1-yl]pyridin-3-yl}-2,6-difluorobenzamide], the inhibition at 1 µM on CRAC channels [1] amounted to 96.2%. Also, the IC50 in the test on IL-5 [2] was found to be 19.8 nM; in the test with IL-4 [6] it was 55.8 nM; in the test on IL-2 [3], 138 nM; in the test with IL-5 [4], 20.6 nM; in the test on IL-4 [12], 143 nM; in the test with TNFα [8], 16.5 nM. Besides, the IC50 in the test on IL-2 [5] came out at 17.5 nM; with TNFα [9] it was 38.4 nM.
In the case of `Cc1nnsc1C(=O)Nc1ccc(-n2nc(C(F)(F)F)cc2C(F)(F)F)cc1` [YM-58483], the “selective index CRAC channels over VOC” value in test [13] is 31.
